Reference: PubChem BioAssay (NCI)
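A five-concentration, 48-hour dose response in 96-well plates underlies each endpoint, interpolated linearly between surrounding concentrations. GI50 = concentration required for 50% inhibition of growth. Definition used: TGI = concentration required for complete inhibition of growth.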

How the values were obtained:
Experiment in all cases: DTP human tumour cell line panel, 48 h
CCRF-CEM leukemia = system: CCRF-CEM leukemia
SR leukemia = system: SR leukemia
786-0 renal = system: 786-0 renal
UO-31 renal = system: UO-31 renal
HL-60(TB) leukemia = system: HL-60(TB) leukemia
A498 renal = system: A498 renal
HOP-92 NSCLC = system: HOP-92 NSCLC
NCI/ADR-RES ovarian = system: NCI/ADR-RES ovarian
PC-3 prostate = system: PC-3 prostate
SF-295 CNS = system: SF-295 CNS
HCT-116 colon = system: HCT-116 colon
RXF 393 renal = system: RXF 393 renal
BT-549 breast = system: BT-549 breast
M14 melanoma = system: M14 melanoma
SNB-75 CNS = system: SNB-75 CNS
SK-MEL-28 melanoma = system: SK-MEL-28 melanoma
SF-268 CNS = system: SF-268 CNS
MALME-3M melanoma = system: MALME-3M melanoma
HCC-2998 colon = system: HCC-2998 colon
HT29 colon = system: HT29 colon
COLO 205 colon = system: COLO 205 colon
NCI-H460 lung = system: NCI-H460 lung
UACC-62 melanoma = system: UACC-62 melanoma
SW-620 colon = system: SW-620 colon
U251 CNS = system: U251 CNS
OVCAR-3 ovarian = system: OVCAR-3 ovarian
SNB-19 CNS = system: SNB-19 CNS
KM12 colon = system: KM12 colon
SN12C renal = system: SN12C renal
T-47D breast = system: T-47D breast
CAKI-1 renal = system: CAKI-1 renal
RPMI-8226 leukemia = system: RPMI-8226 leukemia
OVCAR-5 ovarian = system: OVCAR-5 ovarian
TK-10 renal = system: TK-10 renal
SK-MEL-2 melanoma = system: SK-MEL-2 melanoma
HCT-15 colon = system: HCT-15 colon
SF-539 CNS = system: SF-539 CNS
OVCAR-8 ovarian = system: OVCAR-8 ovarian
SK-OV-3 ovarian = system: SK-OV-3 ovarian
MOLT-4 leukemia = system: MOLT-4 leukemia
ACHN renal = system: ACHN renal
UACC-257 melanoma = system: UACC-257 melanoma
NCI-H226 lung = system: NCI-H226 lung
MDA-MB-231 breast = system: MDA-MB-231 breast
A549 NSCLC = system: A549 NSCLC
HOP-62 NSCLC = system: HOP-62 NSCLC
EKVX NSCLC = system: EKVX NSCLC
OVCAR-4 ovarian = system: OVCAR-4 ovarian
HS 578T breast = system: HS 578T breast
SK-MEL-5 melanoma = system: SK-MEL-5 melanoma
MDA-MB-435 = system: MDA-MB-435
MCF7 breast = system: MCF7 breast
K-562 leukemia = system: K-562 leukemia
NCI-H522 lung = system: NCI-H522 lung
DU-145 prostate = system: DU-145 prostate
LOX IMVI melanoma = system: LOX IMVI melanoma
IGROV1 ovarian = system: IGROV1 ovarian

**Q.** Which GI50 (CCRF-CEM leukemia) does the source give for N#Cc1c(-c2cccs2)cc(-c2cnccn2)nc1SCC(=O)N/N=C/c1ccccc1 here?
**A.** 49.9 µM

**Q.** What about the TGI (CCRF-CEM leukemia) of the same compound?
**A.** > 100 µM

**Q.** What about the GI50 (SR leukemia) of the same compound?
**A.** 11.2 µM

**Q.** What about the TGI (SR leukemia) of the same compound?
**A.** 35.8 µM

**Q.** What about the GI50 (786-0 renal) of the same compound?
**A.** 3.64 µM

**Q.** And the TGI (786-0 renal)?
**A.** 14.4 µM

**Q.** What about the GI50 (UO-31 renal) of the same compound?
**A.** 6.1 µM

**Q.** And the TGI (UO-31 renal)?
**A.** 19.6 µM

**Q.** What about the GI50 (HL-60(TB) leukemia) of the same compound?
**A.** > 100 µM

**Q.** What about the TGI (HL-60(TB) leukemia) of the same compound?
**A.** > 100 µM

**Q.** And the GI50 (A498 renal)?
**A.** 4.46 µM

**Q.** And the TGI (A498 renal)?
**A.** 17.3 µM

**Q.** What about the GI50 (HOP-92 NSCLC) of the same compound?
**A.** 2260 nM

**Q.** And the TGI (HOP-92 NSCLC)?
**A.** 8.49 µM

**Q.** What about the GI50 (NCI/ADR-RES ovarian) of the same compound?
**A.** 4.95 µM

**Q.** And the TGI (NCI/ADR-RES ovarian)?
**A.** 16.7 µM

**Q.** And the GI50 (PC-3 prostate)?
**A.** 6.29 µM

**Q.** And the TGI (PC-3 prostate)?
**A.** 19.2 µM

**Q.** And the GI50 (SF-295 CNS)?
**A.** 4.92 µM

**Q.** And the TGI (SF-295 CNS)?
**A.** 17.1 µM

**Q.** And the GI50 (HCT-116 colon)?
**A.** 5.14 µM

**Q.** What about the TGI (HCT-116 colon) of the same compound?
**A.** 17.3 µM

**Q.** And the GI50 (RXF 393 renal)?
**A.** 2500 nM

**Q.** And the TGI (RXF 393 renal)?
**A.** 6.97 µM

**Q.** And the GI50 (BT-549 breast)?
**A.** 8.31 µM

**Q.** What about the TGI (BT-549 breast) of the same compound?
**A.** 20.7 µM

**Q.** And the GI50 (M14 melanoma)?
**A.** 4.98 µM

**Q.** What about the TGI (M14 melanoma) of the same compound?
**A.** 16.4 µM

**Q.** What about the GI50 (SNB-75 CNS) of the same compound?
**A.** 3.3 µM

**Q.** What about the TGI (SNB-75 CNS) of the same compound?
**A.** 18.5 µM

**Q.** And the GI50 (SK-MEL-28 melanoma)?
**A.** 4.06 µM

**Q.** And the TGI (SK-MEL-28 melanoma)?
**A.** 14.5 µM

**Q.** What about the GI50 (SF-268 CNS) of the same compound?
**A.** 10.3 µM

**Q.** And the TGI (SF-268 CNS)?
**A.** 24.6 µM

**Q.** What about the GI50 (MALME-3M melanoma) of the same compound?
**A.** 3.33 µM

**Q.** What about the TGI (MALME-3M melanoma) of the same compound?
**A.** 9.49 µM

**Q.** What about the GI50 (HCC-2998 colon) of the same compound?
**A.** 10.7 µM

**Q.** And the TGI (HCC-2998 colon)?
**A.** 25.1 µM

**Q.** What about the GI50 (HT29 colon) of the same compound?
**A.** 4.98 µM

**Q.** And the TGI (HT29 colon)?
**A.** 21.3 µM

**Q.** What about the GI50 (COLO 205 colon) of the same compound?
**A.** 11.3 µM

**Q.** And the TGI (COLO 205 colon)?
**A.** > 100 µM

**Q.** And the GI50 (NCI-H460 lung)?
**A.** 3.93 µM

**Q.** And the TGI (NCI-H460 lung)?
**A.** 13.3 µM

**Q.** And the GI50 (UACC-62 melanoma)?
**A.** 8.67 µM

**Q.** What about the TGI (UACC-62 melanoma) of the same compound?
**A.** 21 µM

**Q.** And the GI50 (SW-620 colon)?
**A.** 4.97 µM

**Q.** And the TGI (SW-620 colon)?
**A.** 20.2 µM

**Q.** And the GI50 (U251 CNS)?
**A.** 3.43 µM

**Q.** What about the TGI (U251 CNS) of the same compound?
**A.** 12.1 µM

**Q.** What about the GI50 (OVCAR-3 ovarian) of the same compound?
**A.** 3.88 µM

**Q.** And the TGI (OVCAR-3 ovarian)?
**A.** 12.3 µM

**Q.** And the GI50 (SNB-19 CNS)?
**A.** 7.21 µM

**Q.** What about the TGI (SNB-19 CNS) of the same compound?
**A.** 19.8 µM

**Q.** And the GI50 (KM12 colon)?
**A.** 9.18 µM

**Q.** What about the TGI (KM12 colon) of the same compound?
**A.** > 100 µM

**Q.** And the GI50 (SN12C renal)?
**A.** 6.15 µM

**Q.** And the TGI (SN12C renal)?
**A.** 18.8 µM

**Q.** What about the GI50 (T-47D breast) of the same compound?
**A.** 2940 nM

**Q.** And the TGI (T-47D breast)?
**A.** 15.7 µM

**Q.** What about the GI50 (CAKI-1 renal) of the same compound?
**A.** 3.66 µM

**Q.** And the TGI (CAKI-1 renal)?
**A.** 14.1 µM

**Q.** What about the GI50 (RPMI-8226 leukemia) of the same compound?
**A.** 3.46 µM

**Q.** And the TGI (RPMI-8226 leukemia)?
**A.** 20.9 µM

**Q.** And the GI50 (OVCAR-5 ovarian)?
**A.** 10.4 µM

**Q.** What about the TGI (OVCAR-5 ovarian) of the same compound?
**A.** 23.3 µM

**Q.** And the GI50 (TK-10 renal)?
**A.** 4.51 µM

**Q.** And the TGI (TK-10 renal)?
**A.** 15.3 µM

**Q.** And the GI50 (SK-MEL-2 melanoma)?
**A.** 10.3 µM

**Q.** And the TGI (SK-MEL-2 melanoma)?
**A.** 23 µM

**Q.** What about the GI50 (HCT-15 colon) of the same compound?
**A.** 6.88 µM

**Q.** And the TGI (HCT-15 colon)?
**A.** 27.4 µM

**Q.** What about the GI50 (SF-539 CNS) of the same compound?
**A.** 6.64 µM

**Q.** And the TGI (SF-539 CNS)?
**A.** 19.3 µM

**Q.** And the GI50 (OVCAR-8 ovarian)?
**A.** 6.01 µM

**Q.** And the TGI (OVCAR-8 ovarian)?
**A.** 19.4 µM

**Q.** And the GI50 (SK-OV-3 ovarian)?
**A.** 14.7 µM

**Q.** And the TGI (SK-OV-3 ovarian)?
**A.** 27.9 µM

**Q.** What about the GI50 (MOLT-4 leukemia) of the same compound?
**A.** 47 µM

**Q.** And the TGI (MOLT-4 leukemia)?
**A.** > 100 µM

**Q.** And the GI50 (ACHN renal)?
**A.** 6.14 µM

**Q.** And the TGI (ACHN renal)?
**A.** 18.7 µM

**Q.** And the GI50 (UACC-257 melanoma)?
**A.** 15.1 µM

**Q.** And the TGI (UACC-257 melanoma)?
**A.** 48.6 µM

**Q.** And the GI50 (NCI-H226 lung)?
**A.** 3.41 µM

**Q.** What about the TGI (NCI-H226 lung) of the same compound?
**A.** 12.9 µM

**Q.** What about the GI50 (MDA-MB-231 breast) of the same compound?
**A.** 4.23 µM

**Q.** And the TGI (MDA-MB-231 breast)?
**A.** 15.1 µM

**Q.** And the GI50 (A549 NSCLC)?
**A.** 5.66 µM

**Q.** And the TGI (A549 NSCLC)?
**A.** 20.2 µM

**Q.** And the GI50 (HOP-62 NSCLC)?
**A.** 3.2 µM

**Q.** And the TGI (HOP-62 NSCLC)?
**A.** 11 µM

**Q.** And the GI50 (EKVX NSCLC)?
**A.** 6.48 µM

**Q.** And the TGI (EKVX NSCLC)?
**A.** 19.4 µM

**Q.** What about the GI50 (OVCAR-4 ovarian) of the same compound?
**A.** 3.61 µM

**Q.** What about the TGI (OVCAR-4 ovarian) of the same compound?
**A.** 15.3 µM

**Q.** What about the GI50 (HS 578T breast) of the same compound?
**A.** 6.77 µM

**Q.** And the TGI (HS 578T breast)?
**A.** 31.8 µM

**Q.** And the GI50 (SK-MEL-5 melanoma)?
**A.** 3.52 µM

**Q.** And the TGI (SK-MEL-5 melanoma)?
**A.** 13 µM

**Q.** What about the GI50 (MDA-MB-435) of the same compound?
**A.** 4.49 µM

**Q.** What about the TGI (MDA-MB-435) of the same compound?
**A.** 16.2 µM

**Q.** What about the GI50 (MCF7 breast) of the same compound?
**A.** 3.52 µM

**Q.** And the TGI (MCF7 breast)?
**A.** 14.8 µM

**Q.** What about the GI50 (K-562 leukemia) of the same compound?
**A.** 10.8 µM

**Q.** What about the TGI (K-562 leukemia) of the same compound?
**A.** > 100 µM

**Q.** And the GI50 (NCI-H522 lung)?
**A.** 10.3 µM

**Q.** And the TGI (NCI-H522 lung)?
**A.** 23.9 µM

**Q.** What about the GI50 (DU-145 prostate) of the same compound?
**A.** 3.86 µM

**Q.** What about the TGI (DU-145 prostate) of the same compound?
**A.** 12.7 µM

**Q.** What about the GI50 (LOX IMVI melanoma) of the same compound?
**A.** 2800 nM

**Q.** What about the TGI (LOX IMVI melanoma) of the same compound?
**A.** 10 µM

**Q.** What about the GI50 (IGROV1 ovarian) of the same compound?
**A.** 5.09 µM

**Q.** And the TGI (IGROV1 ovarian)?
**A.** 17.3 µM
